Assay results taken from patent US20140011799A1 (Bristol-Myers Squibb Company, priority 2012, published 2014).

Target: T1, Endothelial lipase (EL) (Homo sapiens, UniProt Q9Y5X9)
T1 construct: HT-1080 cells that were transformed using RAGE technology (Athersys) to overexpress endogenous EL; endogenous in cells; conditioned medium used
T1 sequence (Q9Y5X9 21-500): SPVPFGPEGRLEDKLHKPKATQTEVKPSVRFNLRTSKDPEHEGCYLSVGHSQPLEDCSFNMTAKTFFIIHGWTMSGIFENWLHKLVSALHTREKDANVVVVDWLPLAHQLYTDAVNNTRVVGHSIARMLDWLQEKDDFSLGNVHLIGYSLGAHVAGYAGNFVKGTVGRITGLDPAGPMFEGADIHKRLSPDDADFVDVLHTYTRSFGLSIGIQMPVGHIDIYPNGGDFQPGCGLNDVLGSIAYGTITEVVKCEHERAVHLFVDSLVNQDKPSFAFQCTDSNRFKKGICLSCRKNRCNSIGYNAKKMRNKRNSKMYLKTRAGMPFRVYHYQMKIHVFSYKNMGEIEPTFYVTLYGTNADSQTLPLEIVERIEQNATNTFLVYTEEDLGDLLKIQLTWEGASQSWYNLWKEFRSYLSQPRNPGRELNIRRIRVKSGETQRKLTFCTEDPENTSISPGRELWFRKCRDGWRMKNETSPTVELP
Assay: Endothelial lipase (EL) enzymatic assay, fluorescent substrate A10070 in DMPG vesicles
Format: biochemical
Conditions: EL from conditioned media of HT-1080 cells; compound preincubated 30 min at 37° C; read-out: EL IC50
How it was run: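 EL from conditioned medium of HT-1080 cells engineered to overexpress endogenous EL; HL partially purified from conditioned medium of HL-overexpressing COS cells. Enzyme preincubated with compound 30 min at 37° C in 50 mM HEPES pH 8.0, 50 mM NaCl, 1 mM CaCl2; DMPG vesicles carrying FRET substrate (0.11 mole fraction) then added.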

SMILES | IC50 [nM]
CCCS(=O)(=O)C(c1nnc(CNS(N)(=O)=O)o1)c1nc2ccc(-c3ccccc3)cc2s1 (stereo not shown) [Example 66, N-({5-[(propylsulfonyl) (6-phenyl-1,3-benzothiazol-2-yl)methyl]-1,3,4-oxadiazol-2-yl}methyl) sulfuric diamide] | < 10
NS(=O)(=O)NCc1nnc(C(c2nc3ccc(-c4ccccc4)cc3s2)S(=O)(=O)C2CCCC2)o1 (stereo not shown) [Example 67, N-({5-[(cyclopentylsulfonyl) (6-phenyl-1,3-benzothiazol-2-yl)methyl]-1,3,4-oxadiazol-2-yl}methyl)sulfuric diamide] | < 10
CC(C)CS(=O)(=O)C(c1nnc(CNS(N)(=O)=O)o1)c1nc2ccc(-c3ccccc3)cc2s1 (stereo not shown) [Example 68, N-[(5-{6-phenyl-1,3-benzothiazol-2-yl[(2-methylpropyl)sulfonyl]methyl}-1,3,4-oxadiazol-2-yl)methyl]sulfuric diamide] | < 10
NS(=O)(=O)NCc1nnc(C(c2nc3ccc(-c4ccccc4)cc3s2)S(=O)(=O)Cc2ccc(F)cc2)o1 (stereo not shown) [Example 69, N-((5-(((4-fluorobenzyl)sulfonyl)(6-phenyl-1,3-benzothiazol-2-yl)methyl)-1,3,4-oxadiazol-2-yl)methyl)sulfamide] | < 10
Cc1ccccc1CS(=O)(=O)C(c1nnc(CNS(N)(=O)=O)o1)c1nc2ccc(-c3ccccc3)cc2s1 (stereo not shown) [Example 70, N-((5-(((2-methylbenzyl)sulfonyl)(6-phenyl-1,3-benzothiazol-2-yl)methyl)-1,3,4-oxadiazol-2-yl)methyl) sulfamide] | < 10
NS(=O)(=O)NCc1nnc(C(c2nc3ccc(-c4ccccc4)cc3s2)S(=O)(=O)CC2CCCCC2)o1 (stereo not shown) [Example 71, N-((5-(((cyclohexylmethyl)sulfonyl)(6-phenyl-1,3-benzothiazol-2-yl)methyl)-1,3,4-oxadiazol-2-yl)methyl)sulfamide] | < 10
NS(=O)(=O)NCc1nnc(C(c2nc3ccc(-c4ccccc4)cc3s2)S(=O)(=O)Cc2cc(C(F)(F)F)cc(C(F)(F)F)c2)o1 (stereo not shown) [Example 72, N-((5-(((3,5-bis (trifluoromethyl)benzyl)sulfonyl) (6-phenyl-1,3-benzothiazol-2-yl)methyl)-1,3,4-oxadiazol-2-yl)methyl)sulfamide] | < 10
NS(=O)(=O)NCc1nnc(C(c2nc3ccc(-c4ccccc4)cc3s2)S(=O)(=O)Cc2cccc(Cl)c2)o1 (stereo not shown) [Example 73, N-((5-(((3-chlorobenzyl)sulfonyl)(6-phenyl-1,3-benzothiazol-2-yl)methyl)-1,3,4-oxadiazol-2-yl)methyl)sulfamide] | < 10
NS(=O)(=O)NCc1nnc(C(c2nc3ccc(-c4ccccc4)cc3s2)S(=O)(=O)C2CC2)o1 (stereo not shown) [Example 74, N-({5-[(cyclopropylsulfonyl) (6-phenyl-1,3-benzothiazol-2-yl)methyl]-1,3,4-oxadiazol-2-yl}methyl) sulfuric diamide] | < 10
NS(=O)(=O)NCc1nnc(C(c2nc3ccc(-c4ccc(F)nc4)cc3s2)S(=O)(=O)Cc2ccccc2)o1 (stereo not shown) [Example 75, N-((5-((benzylsulfonyl) (6-(6-fluoro-3-pyridinyl)-1,3-benzothiazol-2-yl)methyl)-1,3,4-oxadiazol-2-yl)methyl)sulfamide] | < 10
NS(=O)(=O)NCc1nnc(C(c2nc3ccc(-c4ccc(F)nc4)cc3s2)S(=O)(=O)Cc2ccc(C(F)(F)F)nc2)o1 (stereo not shown) [Example 76, N-({5-[6-(6-fluoro-3-pyridinyl)-1,3-benzothiazol-2-yl({[6-(trifluoromethyl)pyridin-3-yl]methyl}sulfonyl)methyl]-1,3,4-oxadiazol-2-yl}methyl) sulfuric diamide] | 11
NS(=O)(=O)NCc1nnc(C(c2nc3ccc(-c4ccc(F)nc4)cc3s2)S(=O)(=O)Cc2ccc(F)nc2)o1 (stereo not shown) [Example 77, N-({5-[6-(6-fluoro-3-pyridinyl)-1,3-benzothiazol-2-yl({[6-fluoro-pyridin-3-yl]methyl}sulfonyl)methyl]-1,3,4-oxadiazol-2-yl}methyl)sulfuric diamide] | 18
CS(=O)(=O)C(c1nnc(CNS(N)(=O)=O)o1)c1nc2ccc(-c3ccc(C(=O)NCC(F)(F)F)cc3)cc2s1 (stereo not shown) [Example 78, 4-(2-((methylsulfonyl) (5-((sulfamoylamino)methyl)-1,3,4-oxadiazol-2-yl)methyl)benzo[d]thiazol-6-yl)-N-(2,2,2-trifluoroethyl) benzamide] | < 10
CS(=O)(=O)C(c1nnc(CNS(N)(=O)=O)o1)c1nc2ccc(-c3ccc(F)nc3)cc2s1 (stereo not shown) [Example 79, N-((5-((6-(6-fluoro-3-pyridinyl)-1,3-benzothiazol-2-yl)(methylsulfonyl)methyl)-1,3,4-oxadiazol-2-yl)methyl)sulfamide] | < 10
CN1CCN(C(=O)c2ccc(-c3ccc4nc(C(c5nnc(CNS(N)(=O)=O)o5)S(C)(=O)=O)sc4c3)cc2)CC1 (stereo not shown) [Example 80, N-((5-((6-(4-((4-methyl-1-piperazinyl)carbonyl)phenyl)-1,3-benzothiazol-2-yl)(methylsulfonyl)methyl)-1,3,4-oxadiazol-2-yl)methyl)sulfamide] | 57
CN(Cc1nnc(C(c2nc3ccc(-c4ccccc4)cc3s2)S(=O)(=O)Cc2ccccc2)o1)S(N)(=O)=O (stereo not shown) [Example 81] | 32
CC(C)(C)CN1CC(c2nnc(C(c3nc4ccc(-c5ccccc5)cc4s3)S(=O)(=O)Cc3ccccc3)o2)C1 (stereo not shown) [Example 82, 2-((Benzylsulfonyl)(6-phenylbenzo[d]thiazol-2-yl)methyl)-5-(1-neopentylazetidin-3-yl)-1,3,4-oxadiazole] | 26
CC(C)(C)OC(=O)NCc1nnc(C(c2nc3ccc(-c4ccccc4)cc3s2)S(C)(=O)=O)o1 (stereo not shown) [Example 83, tert-Butyl ((5-((methylsulfonyl)(6-phenylbenzo[d]thiazol-2-yl)methyl)-1,3,4-oxadiazol-2-yl)methyl)carbamate] | < 10
CC(C)(C)OC(=O)N(Cc1nnc(C(c2nc3ccc(-c4ccccc4)cc3s2)S(C)(=O)=O)o1)S(C)(=O)=O (stereo not shown) [Example 84, tert-Butyl methylsulfonyl((5-((methylsulfonyl)(6-phenylbenzo[d]thiazol-2-yl)methyl)-1,3,4-oxadiazol-2-yl)methyl)carbamate] | < 10
CS(=O)(=O)C(c1nnc(CN)o1)c1nc2ccc(-c3ccccc3)cc2s1 (stereo not shown) [Example 85, (5-((Methylsulfonyl)(6-phenylbenzo[d]thiazol-2-yl)methyl)-1,3,4-oxadiazol-2-yl)methanamine] | 48
CS(=O)(=O)NCc1nnc(C(c2nc3ccc(-c4ccccc4)cc3s2)S(C)(=O)=O)o1 (stereo not shown) [Example 86, N-((5-((Methylsulfonyl)(6-phenylbenzo[d]thiazol-2-yl)methyl)-1,3,4-oxadiazol-2-yl)methyl)methanesulfonamide] | 47
CCNC(=O)NCc1nnc(C(c2nc3ccc(-c4ccccc4)cc3s2)S(C)(=O)=O)o1 (stereo not shown) [Example 87, 1-Ethyl-3((5-((methylsulfonyl)(6-phenylbenzo[d]thiazol-2-yl)methyl)-1,3,4-oxadiazol-2-yl)methyl)urea] | 46
CC(C)C(=O)NCc1nnc(C(c2nc3ccc(-c4ccccc4)cc3s2)S(C)(=O)=O)o1 (stereo not shown) [Example 88, N-((5-((Methylsulfonyl)(6-phenylbenzo[d]thiazol-2-yl)methyl)-1,3,4-oxadiazol-2-yl)methyl)isobutyramide] | 195
CS(=O)(=O)C(c1nnc(CS(N)(=O)=O)o1)c1nc2ccc(-c3ccccc3)cc2s1 (stereo not shown) [Example 89, (5-((Methylsulfonyl)(6-phenylbenzo[d]thiazol-2-yl)methyl)-1,3,4-oxadiazol-2-yl)methanesulfonamide] | < 10
NS(=O)(=O)Cc1nnc(C(c2nc3c(F)cc(-c4ccccc4)cc3s2)S(=O)(=O)Cc2ccc(C(F)(F)F)cc2)o1 (stereo not shown) [Example 90, (5-((4-Fluoro-6-phenylbenzo[d]thiazol-2-yl)((4-(trifluoromethyl)benzyl)sulfonyl)methyl)-1,3,4-oxadiazol-2-yl)methanesulfonamide] | < 10
O=C1NC(=O)C(Cc2nnc(C(c3nc4cc(F)c(-c5ccccc5)cc4s3)S(=O)(=O)Cc3ccccc3)o2)S1 (stereo not shown) [Example 91, 5-((5-((benzylsulfonyl) (5-fluoro-6-phenyl-benzo[d]thiazol-2-yl)methyl)-1,3,4-oxadiazol-2-yl)methyl) thiazolidine-2,4-dione] | < 10
O=C(NCCS(=O)(=O)C(c1nnc(CC2SC(=O)NC2=O)o1)c1nc2c(F)cc(-c3ccccc3)cc2s1)OCc1ccccc1 (stereo not shown) [Example 92, benzyl (2-(((5-((2,4-dioxothiazolidin-5-yl)methyl)-1,3,4-oxadiazol-2-yl)(4-fluoro-6-phenyl-benzo[d]thiazol-2-yl)methyl)sulfonyl)ethyl) carbamate] | < 10
O=C1NC(=O)C(Cc2nnc(C(c3nc4c(F)cc(-c5ccccc5)cc4s3)S(=O)(=O)Cc3ccccc3)o2)S1 (stereo not shown) [Example 93, 5-((5-((benzylsulfonyl) (4-fluoro-6-phenyl-benzo[d]thiazol-2-yl)methyl)-1,3,4-oxadiazol-2-yl)methyl)thiazolidine-2,4-dione] | < 10
